{"source": "patent US20240016781A1", "about": "“TREATMENT OF KRAS MUTANT CANCERS” (MEI Pharma, Inc., priority 2020, published 2024)", "system": "MYC (pSer62 and total) in MIA PACA-2 (G12C) cells", "experiment": "Western blot of MYC and pSer62-MYC in MIA PACA-2 cells", "assay_type": "cell-based", "conditions": "4 μM Voruciclib", "procedure": "Voruciclib is an oral inhibitor of CDKs 9, 4, 6, and 1 currently being tested in Phase 1B clinical trials for B-cell malignancies and acute myeloid leukemia. Voruciclib inhibition of CDK9 leads to decreased expression of transcriptional targets of RNA Pol II, such as Mcl1 and MYC. To test whether Voruciclib could be effective in cancers driven by dysregulated KRAS-MYC signaling, ˜20 cancer cell lines with KRAS mutations (G12A, G12C, G12D, G12S, G12V, G13C, G13D, Q61H) were treated in preclinical studies with Voruciclib. MTS and Cell Titer Glo assays were used to monitor growth in vitro. […] To investigate MYC protein stability, MIA PACA-2 (G12C) cells were treated with 4 μM Voruciclib for 5-240 min, followed by SDS-PAGE and Western Blotting analysis with α-MYC and α-pSer62-MYC antibodies. […] A 60% decrease in pSer62 was observed after 5 min that reached 80% by 60 min. […] The ability of Voruciclib to inhibit tumor growth in vivo was also tested in murine xenograft models. KRAS mutant human cancer cells HCT-116 (CRC, KRAS G13D), SW-480 (CRC, KRAS G12V), and H-460 (NSCLC, KRAS Q61H) were injected subcutaneously into SCID mice. Once tumors reached 5-10 mm in diameter, Voruciclib or vehicle were administered orally at 50, 100, or 200 mg/kg OD for 11-14 days. Tumors were measured every 2-3 days, and growth inhibition relative to control was calculated.\nFIG. 32—Voruciclib causes rapid inhibition MYC pSer62 phosphorylation and reduces MYC protein levels. Immunoblot analyses of c-MYC, phospho-c-MYC (Ser62), and actin in MIA Paca-2 KRAS G12C mutant PDAC cells. (FIG. 32A) Cells were treated with vehicle control, voruciclib (VOR, 4 μM), or the AZD4573 (AZD, a CDK9 inhibitor, 400 nM) for the indicated times. (FIG. 32B) Cells were treated with various concentrations of voruciclib or AZD4573 for the indicated time. Relative densitometry values are indicated.", "data": [{"molecule": "CN1CC[C@@H](c2c(O)cc(O)c3c(=O)cc(-c4ccc(C(F)(F)F)cc4Cl)oc23)[C@@H]1CO", "note": "[Voruciclib, (+)-trans-2-(2-Chloro-4-trifluoromethylphenyl)-5,7-dihydroxy-8-(2-hydroxymethyl-1-methylpyrrolidin-3-yl)-chromen-4-one]", "values": [{"measurement": "decrease in total MYC protein", "setting": "5 or 15 min", "result": "no decrease in total MYC protein"}, {"measurement": "reduction in total MYC", "setting": "60 min", "result": 10, "unit": "%"}, {"measurement": "reduction in total MYC", "setting": "240 min", "result": 50, "unit": "%"}, {"measurement": "decrease in pSer62 (MYC)", "setting": "after 5 min", "result": 60, "unit": "%"}, {"measurement": "decrease in pSer62 (MYC)", "setting": "by 60 min", "result": 80, "unit": "%"}]}]}
